Source: patent US20080233206A1, “COMPOSITIONS AND METHODS FOR ANTI-INFLAMMATORY TREATMENTS” (Molecular Research Center, Inc., priority 2007, published 2008)
Where two headings read alike, the source gives them in different places.

Tests used:
[1] = prolonged treatment (for acne); cited from earlier work
various cell types = conditions: in vitro and in vivo; cited from earlier work
[2] = system: human lymphoma Molt-4 cells; experiment: Growth of human lymphoma Molt-4 cells; format: cell-based; conditions: 5 μg/ml, read-out: inhibition of cell growth
From the text: (§1) The intestine epithelial cells have a high proliferation rate. Thus, the anti-proliferating effect of semisynthetic or synthetic tetracyclines may lead to potential side effects, especially during a long-term therapy.

[3] = cited from earlier work
[4] = system: human intestine cell line CCL-221; experiment: Growth of human intestine cell line CCL-221; format: cell-based; conditions: 5 μg/ml
From the text: as §1

[5] = human subjects, concurrently with a protein diet (Welling, 1977)

CN(C)c1ccc(O)c2c1C[C@H]1C[C@H]3[C@H](N(C)C)C(O)=C(C(N)=O)C(=O)[C@@]3(O)C(O)=C1C2=O [minocycline]
induced syndrome [1]: drug-induced lupus

NC(=O)C1=C(O)C[C@@H]2C[C@@H]3Cc4cccc(O)c4C(=O)C3=C(O)[C@]2(O)C1=O [CMT-3]
effect on cell proliferation (various cell types): inhibit proliferation

CN(C)[C@@H]1C(O)=C(C(N)=O)C(=O)[C@@]2(O)C(O)=C3C(=O)c4c(O)cccc4[C@@](C)(O)[C@H]3C[C@@H]12 [tetracycline, 4-(Dimethylamino)-1,4,4α,5,5α,6,11,12α-octahydro-3,6,10,12,12α-pentahydroxy-6-methyl-1,1′-dioxo-2-naphtacenecarobxamide]
inhibition at 5 µg/mL [2]: ~20%
serum level [3, 5]: 1800 ng/mL

C[C@H]1c2cccc(O)c2C(=O)C2=C(O)[C@]3(O)C(=O)C(C(N)=O)=C(O)[C@@H](N(C)C)[C@@H]3[C@@H](O)[C@@H]21 [doxycycline]
inhibition at 5 µg/mL [4]: ~60%
inhibition at 5 µg/mL [2]: ~80%
serum level ([3]; fasting subjects (Depperman, 1989)): 2700 ng/mL
serum level [3, 5]: 2600 ng/mL
serum level ([3]; with antacid (aluminum-magnesium hydroxide) (Depperman, 1989)): 450 ng/mL
